The record followed here is patent US12030896B2, “PIKfyve inhibitors” (Mayo Foundation for Medical Education and Research, priority 2018, dated 2024).

For the test, the target named is PIKfyve (Homo sapiens, UniProt Q9Y2I7). The experiment in a line: Kinase panel screen: inhibition of PIKfyve. It counts as binding. As to conditions: 50 nM. As for the experimental part:
No other kinase was blocked to that extent by 50 nM of Example 1, indicating its high degree of selectivity.
In contrast, 50 nM Apilimod inhibited two kinases to 1% or 10%, and 3 kinases to 35% of control. To examine non-specific binding at higher concentrations, Example 1, Example 3, and Apilimod were tested at 5000 nM. […] PIKfyve is represented at the bottom left of each dendrogram.

For orientation: inhibition means the drop in the measured response relative to a control, in per cent. A lower inhibition goes with a response near the control.

SMILES strings stand for the structures.

PIKfyve, sequence (Q9Y2I7 whole entry): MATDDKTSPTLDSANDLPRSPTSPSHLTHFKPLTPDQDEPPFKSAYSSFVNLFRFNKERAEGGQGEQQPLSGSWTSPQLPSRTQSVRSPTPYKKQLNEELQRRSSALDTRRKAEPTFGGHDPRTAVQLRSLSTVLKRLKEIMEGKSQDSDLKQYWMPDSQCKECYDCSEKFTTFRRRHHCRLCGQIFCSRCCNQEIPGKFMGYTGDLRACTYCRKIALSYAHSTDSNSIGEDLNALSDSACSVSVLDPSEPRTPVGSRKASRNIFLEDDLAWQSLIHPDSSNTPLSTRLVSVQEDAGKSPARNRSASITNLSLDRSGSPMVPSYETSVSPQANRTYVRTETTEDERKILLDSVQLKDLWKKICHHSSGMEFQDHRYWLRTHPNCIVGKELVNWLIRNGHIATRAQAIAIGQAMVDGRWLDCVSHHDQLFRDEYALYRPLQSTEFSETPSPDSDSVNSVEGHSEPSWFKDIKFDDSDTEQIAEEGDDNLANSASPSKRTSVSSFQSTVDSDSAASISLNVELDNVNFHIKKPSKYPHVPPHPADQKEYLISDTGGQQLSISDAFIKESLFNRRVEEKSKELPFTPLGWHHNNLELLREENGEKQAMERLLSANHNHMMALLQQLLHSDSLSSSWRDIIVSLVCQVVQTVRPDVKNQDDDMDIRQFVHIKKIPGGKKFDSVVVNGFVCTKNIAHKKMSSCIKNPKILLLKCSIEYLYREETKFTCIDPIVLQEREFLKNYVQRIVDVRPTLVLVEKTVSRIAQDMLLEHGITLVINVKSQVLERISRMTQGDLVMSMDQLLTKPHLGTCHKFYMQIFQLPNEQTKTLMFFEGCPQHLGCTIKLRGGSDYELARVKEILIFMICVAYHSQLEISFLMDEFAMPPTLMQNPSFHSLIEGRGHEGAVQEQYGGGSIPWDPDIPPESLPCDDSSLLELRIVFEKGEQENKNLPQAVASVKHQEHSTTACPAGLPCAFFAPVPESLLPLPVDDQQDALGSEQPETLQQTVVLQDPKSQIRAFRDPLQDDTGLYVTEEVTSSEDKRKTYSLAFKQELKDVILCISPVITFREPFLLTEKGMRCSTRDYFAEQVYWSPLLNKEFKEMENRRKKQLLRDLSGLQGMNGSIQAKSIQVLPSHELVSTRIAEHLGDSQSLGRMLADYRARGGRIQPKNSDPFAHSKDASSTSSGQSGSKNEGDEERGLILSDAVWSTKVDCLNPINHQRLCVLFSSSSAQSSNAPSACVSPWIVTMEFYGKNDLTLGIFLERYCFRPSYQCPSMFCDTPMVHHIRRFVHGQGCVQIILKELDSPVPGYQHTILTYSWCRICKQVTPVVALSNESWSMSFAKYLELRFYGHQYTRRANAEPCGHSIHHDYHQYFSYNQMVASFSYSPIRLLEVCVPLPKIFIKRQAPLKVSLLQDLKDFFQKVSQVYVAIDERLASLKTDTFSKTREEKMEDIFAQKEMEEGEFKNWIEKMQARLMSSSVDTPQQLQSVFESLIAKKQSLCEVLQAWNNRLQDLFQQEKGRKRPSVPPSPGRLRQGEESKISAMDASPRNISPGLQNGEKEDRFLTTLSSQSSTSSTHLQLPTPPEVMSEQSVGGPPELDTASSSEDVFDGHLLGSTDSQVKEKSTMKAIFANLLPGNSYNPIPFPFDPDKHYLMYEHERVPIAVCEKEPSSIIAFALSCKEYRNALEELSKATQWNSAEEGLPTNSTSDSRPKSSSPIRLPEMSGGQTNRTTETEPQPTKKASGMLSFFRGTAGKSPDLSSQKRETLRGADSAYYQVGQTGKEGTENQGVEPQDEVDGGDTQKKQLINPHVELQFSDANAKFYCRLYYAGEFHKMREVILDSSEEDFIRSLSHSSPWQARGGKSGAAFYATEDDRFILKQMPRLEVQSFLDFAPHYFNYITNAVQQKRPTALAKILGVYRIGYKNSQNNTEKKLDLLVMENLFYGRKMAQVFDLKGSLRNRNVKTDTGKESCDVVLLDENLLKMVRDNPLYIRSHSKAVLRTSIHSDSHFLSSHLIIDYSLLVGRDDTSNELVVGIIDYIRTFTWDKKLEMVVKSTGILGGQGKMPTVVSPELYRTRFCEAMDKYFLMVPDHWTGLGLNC

As for `Cc1ccc(Nc2nc(N/N=C/c3c[nH]c4ccccc34)nc(N3CCOCC3)n2)cc1` [Example 1, (E)-4-(2-((1H-indol-3-yl)methylene)hydrazinyl)-6-morpholino-N-(p-tolyl)-1,3,5-triazin-2-amine], the inhibition at 0.05 µM is over 99%.
